pIC50: −log10 of the molar value. ≈ marks a conversion by molar mass, not a printed value.
Legend:
in vitro [1] = format: in vitro ADME; settings: plasma
Protocol: (§1) C = (CD(t) × VD) + (CA(t) × VA )
(§2) % Mass Retention = 1 − (CD(t) × VD) + (CA(t) × VA)
(§3) A = Filter Area, VD = Donor Well Volume, VA = Acceptor Well Volume, t = incubation time (secs), CA(t) = Acceptor concentration at time t, CD(t) =Donor concentration at time t, C0 = Initial Donor concentration.
(§4) No Permeability is reported for compounds where % Mass Retention exceeds 50%.
(§5) ADME determinations for compounds in Suppl. Table 2 (Data kindly supplied by […]
(§6) The chemicals used in the assay were supplied by Sigma Aldrich. Briefly, 30 µL of a 20 mM stock solution of the compound to test was added to a vial containing 1. 5 mL of pH 7.4 phosphate buffer saturated octanol and 1.5 mL of octanol saturated pH 7.4 phosphate buffer. The vial was then shaken on a reciprocating shaker at 125 rpm for 40 min.
(§7) Following centrifugation to ensure phase separation, the concentration of the compound in both the octanol and buffer phases was measured by LC -UV. The Log D was then calculated as the Log of ratio of the concentration of compound in the octanol phase to that in the […]
(§8) 1 mL of buffer was added to 1.0 mg of compound and then incubated for 24 hr (Bioshake iQ, 650 rpm, 25 °C). Following filtration under positive pressure, the concentration of compound in solution was assessed by LC -UV in comparison to the response for a kno wn […]
(§9) A known concentration of drug in plasma (20 µM) was dialysed against phosphate buffer for 18 hr at 37 °C. The concentration of compound in the protein-containing and protein-free sides of the dialysis plate were determined by LC-MS/MS. The methodology uses either 100% plasma or plasma diluted with phosphate buffer. […]
Briefly, monolayer integrity was measured before the assay was initiated measuring the transepithelial electrical resistance values (Ω). Compound was added to either apical (A) or basolateral (B) chamber at a final concentration of 10 µM and after 2 hr incubation at 37 °C, an aliquot from the opposite side of the monolayer was removed and quantified by LC-MS/MS. The apparent permeability (P app) was calculated using Equation 6 : […]

in vitro [2] = format: in vitro ADME, canine; settings: dog, MDCK
Protocol: as §1, §2, §3, §4, §5, §6, §7, §8
as §9, with “buffer. The routine operation of the assay employed 10% plasma diluted with phosphate buffer to enable the detection of highly bound compounds. Results were corrected to reflect the result if diluted plasma was” for “buffer.”
(§10) Briefly, monolayer integrity was measured before the assay was initiated measuring the transepithelial electrical resistance values (Ω). Compound was added to either apical (A) or basolateral (B) chamber at a final concentration of 10 µM and after 2 hr incubation at 37 °C, an aliquot from the opposite side of the monolayer was removed and quantified by LC-MS/MS. The apparent permeability (P app) was calculated using Equation 6 :
(§11) Papp [cm.s-1] = (V/(A.C i)) × (Cf/T) Eq.6
(§12) Where V = volume of recipient chamber (mL), A = surface area of membrane insert (cm2), Ci = initial concentration of compound (µM), Cf = final concentration of compound (µM), T = assay time (s). Efflux ratio = Papp B to A / Papp A to B.

[3] = format: in vitro ADME; settings: human, microsomes, 1 µM
Protocol: Data analysis was performed using Excel (Microsoft, USA).
Human liver microsomes were commercially obtained (Invitrogen, USA). All microsomes were stored at -80 °C. Liver microsomal stability studies were performed manually using the substrate depletion approach, drug was incubated at 37 °C with human liver microsomes (0.5 mg.mL-1) at a final substrate concentration of 1 µM. Aliquots were removed from the incubation at 0, 5, 15, 30 and 45 min and the reaction was terminated by adding to ice-cold organic solvent. Compound concentrations were determined by LC-MS/MS analysis. The natural log of the percentage of compound remaining was plotted against each time point and the slope determined. The half-life (t1/2) and CLint were calculated using Equations 1 and 2, respectively.
CLint (µL.min-1.mg-1) = (LN(2)/t1/2(min))*1000/microsomal protein (mg.mL-1)a Eq. 2 a or cell density (106 cells.mL-1) or P450 concentration (pmol.mL-1)
Percentage liver blood flow (%LBF) was determined by dividing Cl by liver blood flow (20.7 mL/min/kg). Data analysis was performed using Excel (Microsoft, USA).

physchem = format: physicochemical; settings: for logD: pH 7.4
Protocol: as §1, §2, §3, §4, §5, §6, §7, §8
as §9, with “buffer. The routine operation of the assay employed 10% plasma diluted with phosphate buffer to enable the detection of highly bound compounds. Results were corrected to reflect the result if diluted plasma was” for “buffer.”
as §10, §11, §12

[4] = Pharmacokinetic evaluation in guinea pigs; format: in vivo; settings: guinea pig; for AUCinf / Cmax: in vivo, po; for t1/2: oral, dose mg/kg: 13 8, 5 5, 8 3.5, 9 5
Protocol: Guinea pig males (Durkin Hartley) were used to evaluate the pharmacokinetics and tissue distribution of compounds. The route of administration was either intraperitoneal (ip) or oral (po) with dosage varying from 3.5 to 8 mg kg^–1 (op) and 2.5–4 mg kg^–1 (ip). In each case 4 samples were collected per time point at 0.1, 0.5, 2, 4, and 8 h post dose for ip and 0.25, 0.5, 2, 4, and 8 h post dose for po. Compounds were prepared in 10% DMSO, 5% Cremaphor, and 85% physiological saline for IP administration or 0.5% (v/v) Tween 80, 99.5% (v/v) 0.5% methylcellulose for oral administration. Tissue samples (n = 4) from lung, liver, and kidney were collected at the end of the study and snap frozen prior to bioanalysis.

MptpB = MptpB (Mycobacterium tuberculosis, UniProt I6WXK4); experiment: biochemical; design: species or system M. tuberculosis
M. tuberculosis = format: in vivo, guinea pig
M. tuberculosis H37Rv = experiment: Acute guinea pig model of TB infection; format: in vivo; settings: 28 days of treatment, oral daily, 13 100 mg/kg, RIF 50 mg/kg
[5] = chronic model, 28 days of treatment from day 28, oral daily, 13 100 mg/kg, RIF 50 mg/kg

Sequence of MptpB (I6WXK4 whole entry, looked up): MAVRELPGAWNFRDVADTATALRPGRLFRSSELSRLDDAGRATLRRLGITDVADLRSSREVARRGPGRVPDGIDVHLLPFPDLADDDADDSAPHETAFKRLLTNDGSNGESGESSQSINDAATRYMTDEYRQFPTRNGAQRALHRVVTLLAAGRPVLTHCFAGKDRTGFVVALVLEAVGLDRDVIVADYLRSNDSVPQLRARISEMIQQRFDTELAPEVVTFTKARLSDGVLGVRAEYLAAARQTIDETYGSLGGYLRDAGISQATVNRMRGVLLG

For O=C(O)c1noc(-c2ccccc2)c1-c1cccc(-c2ccc(O)c(F)c2)c1 [Compound 11, 4-(3′-Fluoro-4′-hydroxy-3-biphenyl)-5-phenylisoxazole-3-carboxylic Acid], which fraction unbound at 18 h, 20 µM (in vitro [1]) is on record?
The fraction unbound at 18 h, 20 µM was 0.002.

What about the Papp at 2 h, 10 µM (in vitro [2]) of the same compound?
Its Papp at 2 h, 10 µM is 2.7 ×10⁻⁶ cm/s.

And the efflux ratio at 2 h, 10 µM (in vitro [2])?
The efflux ratio at 2 h, 10 µM was 0.7.

What about the “HLM CLint (% LBF)” value [3] of the same compound?
Its value is 47.7 % LBF.

What about the solubility at 24 h (physchem) of the same compound?
The solubility at 24 h was greater than 1250 µg/mL.

And the logD (physchem)?
Its logD is 0.67.

Which fraction unbound at 18 h, 20 µM (in vitro [1]) does the source give for O=C(O)c1noc(-c2ccccc2)c1-c1cccc(-c2ccc(O)c(Cl)c2)c1 [Compound 10, 4-(3′-Chloro-4′-hydroxy-3-biphenyl)-5-phenylisoxazole-3-carboxylic Acid] here?
The fraction unbound at 18 h, 20 µM was 0.001.

What about the Papp at 2 h, 10 µM (in vitro [2]) of the same compound?
Its Papp at 2 h, 10 µM is 3.3 ×10⁻⁶ cm/s.

What about the efflux ratio at 2 h, 10 µM (in vitro [2]) of the same compound?
Its efflux ratio at 2 h, 10 µM is 0.8.

And the “HLM CLint (% LBF)” value [3]?
The value was 33 % LBF.

What about the solubility at 24 h (physchem) of the same compound?
The solubility at 24 h was greater than 1250 µg/mL.

And the logD (physchem)?
The logD was 1.3.

With O=C(O)c1noc(-c2ccccc2)c1-c1cccc(-c2cc(Cl)c(O)c(Cl)c2)c1 [Compound 5, 4-(3′,5′-Dichloro-4′-hydroxy-3-biphenyl)-5-phenylisoxazole-3-carboxylic Acid] as the compound, how does the Papp at 2 h, 10 µM (in vitro [2]) read?
The Papp at 2 h, 10 µM was 0.8 ×10⁻⁶ cm/s.

What about the AUCinf [4] of the same compound?
Its AUCinf is “BLQ”.

What about the Cmax [4] of the same compound?
Its Cmax is “BLQ”.

And the t1/2 [4]?
The t1/2 was “BLQ”.

And the “HLM CLint (% LBF)” value [3]?
The value was 31 % LBF.

What about the solubility at 24 h (physchem) of the same compound?
The solubility at 24 h was 1180 µg/mL (≈ 2.78 mM).

What about the logD (physchem) of the same compound?
The logD was 0.84.

Which results are given for O=C(O)c1cc(-c2ccccc2)on1 [Compound 1, 5-Phenylisoxazole-3-carboxylic Acid]?
pIC50 (MptpB; IC50 (molecular formula strings csv)): < 3.30; pIC50 (MptpB; IC50 MptpB): < 3.30

What does the source list for CO[C@H]1/C=C/O[C@@]2(C)Oc3c(C)c(O)c4c(O)c(c(/C=N/N5CCN(C)CC5)c(O)c4c3C2=O)NC(=O)/C(C)=C\C=C\[C@H](C)[C@H](O)[C@@H](C)[C@@H](O)[C@@H](C)[C@H](OC(C)=O)[C@@H]1C [RIF, rifampicin, reference compound]?
Lungs infection burden, average (M. tuberculosis; [5]): 3.7 log CFU; Lungs log reduction relative to vehicle (M. tuberculosis; [5]): 2.0 log; Spleen infection burden, average (M. tuberculosis; [5]): BLQ; Spleen log reduction relative to vehicle (M. tuberculosis; [5]): > 5.0 log; Lungs weight % change relative to Vehicle (M. tuberculosis; guinea pig, in vivo): -29%; Lungs weight, average (M. tuberculosis; guinea pig, in vivo): 3.8 g; Spleen weight % change relative to Vehicle (M. tuberculosis; guinea pig, in vivo): -73%; Spleen weight, average (M. tuberculosis; guinea pig, in vivo): 0.7 g; Lungs infection burden, average (M. tuberculosis H37Rv): BLQ; Spleen infection burden, average (M. tuberculosis H37Rv): BLQ

For Cc1cc(-c2cccc(-c3c(C(=O)O)noc3-c3ccccc3)c2)cc(C)c1O [Compound 9, 4-(3′,5′-Dimethyl-4′-hydroxy-3-biphenyl)-5-phenylisoxazole-3-carboxylic Acid], which fraction unbound at 18 h, 20 µM (in vitro [1]) is on record?
The fraction unbound at 18 h, 20 µM was 0.001.

What about the Papp at 2 h, 10 µM (in vitro [2]) of the same compound?
Its Papp at 2 h, 10 µM is 5.8 ×10⁻⁶ cm/s.

And the AUCinf [4]?
The AUCinf was “BLQ”.

And the Cmax [4]?
The Cmax was “BLQ”.

And the t1/2 [4]?
Its t1/2 is “BLQ”.

And the “HLM CLint (% LBF)” value [3]?
Its value is 36.4 % LBF.

And the solubility at 24 h (physchem)?
Its solubility at 24 h is greater than 1250 µg/mL.

What about the logD (physchem) of the same compound?
The logD was 1.37.

Which results are given for O=C(O)c1noc(-c2ccccc2)c1-c1cccc(-c2cc(Cl)cc(Cl)c2)c1 [Compound 8, 4-(3′,5′-Dichoro-3-biphenyl)-5-phenylisoxazole-3-carboxylic Acid]?
AUCinf [4]: BLQ; Cmax [4]: BLQ; t1/2 [4]: BLQ

— paper PMC6459586, “Structure-Based Design of MptpB Inhibitors That Reduce Multidrug-Resistant Mycobacterium tuberculosis Survival and Infection Burden in Vivo” (Journal of Medicinal Chemistry, 2018)
